We go through 2 molecules from US20110034472A1, “Novel Compounds for Treatment of Cancer and Disorders Associated With Angiogenesis Function” (UNIVERSITY OF SOUTHERN CALIFORNIA, priority 2004, published 2011).

Molecules are shown by their SMILES. Read-outs that look alike come from different tables or passages of the source.

In assay [1] the test system is DU145 cells. In words: Annexin V/propidium iodide apoptosis assay, DU145. In kind it is cell-based, human. The following applies: 72 hours exposure, IC80. The method, then: FIG. 19 illustrates apoptosis analysis of DU145 cells treated with SC21 or CPT (IC80). Cells were treated with SC21 or CPT for 24, 48, and 72 h, harvested, stained with annexin V/propidium iodide and analyzed by flow cytometry. Untreated control cells (24 and 48 h) were also included in the analysis. Annexin VFITC signals are recorded in FL1-H or […] and propidium iodide in FL2-H or […]. Cells in the bottom left quadrant (annexin V-negative, propidium iodide-negative) are viable, whereas cells in the right quadrant (annexin V-positive, propidium iodide-negative) are in the early stages of apoptosis, and the cells in the top right quadrant (annexin V-positive, propidium iodide-positive) are in later stages of apoptosis and necrosis.
To quantify drug-induced apoptosis, annexin V/propidium iodide staining was done followed by flow cytometry. […] The resulting fluorescence (FLH-1 channel for green fluorescence and FLH-2 channel for red fluorescence) was measured by flow cytometry using a FACScan flow cytometer (Becton Dickinson).
SC21 and CPT-induced apoptosis was measured by flow cytometry (FIG. 18). SC21 at an IC80 dose for 72 hours induced 12% to 15% apoptosis as measured by calculating sub-G0/G1 population. […] This event precedes nuclear breakdown, DNA fragmentation, the appearance of most apoptosis-associated molecules, and is readily measured by annexin V binding assay. […]

Assay [2] deals with HOP-62 non-small cell lung cancer cells. The experiment in a line: Sensitivity of various cancer cells to SC144, HOP-62. In kind it is cell-based. Conditions: Homo sapiens. An excerpt: (§1) The studies were expanded to other cell lines. […] Subnanomolar to low nanomolar potency was also observed in HCT-116 and HT29 colon cancer cell lines (Table 2).
In assay [3] the test system is HCT 116 p53^−/− colon cancer cells. The experiment in a line: MTT cytotoxicity assay, HCT 116 p53-/-. In kind it is cell-based, human. Conditions: Homo sapiens, 72 h. An excerpt:
(§2) Human breast cancer cells MDA-MB-435 and colon cancer HT29, p53 mutant were purchased from the American Type Cell Culture (Manassas, Va.). The HCT116 P53^+/+ and HCT116 P53^−/− cells were kindly provided by Dr. Bert Vogelstein (Johns Hopkins Medical Institutions, Baltimore, Md.). Human prostate cancer cells, LNCaP, were kindly provided by Richard Cote (University of Southern California Keck School of Medicine). Cells were maintained as monolayer cultures in RPMI 1640 media supplemented with 10% fetal bovine serum (Gemini-Bioproducts, Woodland, Calif.) and 2 mmol/L L-glutamine at 37° C. in a humidified atmosphere of 5% CO2. To remove the adherent cells from the flask for passaging and counting, cells were washed with PBS without calcium or magnesium, incubated with a small volume of 0.25% trypsin-EDTA solution (Sigma-Aldrich, St. Louis, Mo.) for 5-10 min, and washed with culture medium and centrifuged. All experiments were performed using cells at exponential growth stage. Cells were routinely checked for mycoplasma contamination using a PCR-based assay (Stratagene, Cambridge, UK).
(§3) Cytotoxicity was assessed by a 3-(4,5-dimethylthiazol-2-yl)-2,5-diphenyltetrazolium bromide (MTT) assay as previously described.^9 Briefly, cells were seeded in 96-well microtiter plates and allowed to attach. Cells were subsequently treated with continuous exposure to the corresponding drug for 72 h. An MTT solution (at a final concentration of 0.5 mg/mL) was added to each well, and cells were incubated for 4 h at 37° C. After removal of the medium, DMSO was added and the absorbance was read at 570 nm. All assays were done in triplicate. The IC50 was then determined for each drug from a plot of log (drug concentration) versus percentage of cells killed.
(Tetrazolium assays rely on reduction of a dye to a coloured formazan, in cell work by metabolically active cells.)

Assay [4] concerns SF-268 CNS cancer cells. In words: Sensitivity of various cancer cells to SC144, SF-268. The format is cell-based. Conditions: Homo sapiens.
Description: as §1

Assay [5] concerns HL60 leukemia cells. In words: Sensitivity of various cancer cells to SC144, HL60. The format is cell-based. Conditions: Homo sapiens, HL-60.
Description: as §1

Assay [6] deals with HCT 116 p53^+/+ colon cancer cells. In words: MTT cytotoxicity assay, HCT 116 p53+/+. The format is cell-based, human. The following applies: Homo sapiens, 72 h.
Description: as §2, §3

Assay [7] deals with HT29 colon cancer cells. In words: MTT cytotoxicity assay, HT 29. In kind it is cell-based, human. Conditions: Homo sapiens, 72 h.
Description: as §2, §3

For assay [8], the system named is MCF-7/ADR breast cancer cells. The experiment in a line: MTT cytotoxicity assay, MCF-7/ADR. The format is cell-based. The following applies: Homo sapiens, NCI/ADR-RES, read-out: CC50 values (mean ± SD). The method, then:
(§4) The sensitivity of a panel of seven human cancer cell lines to SC144 was assessed by MTT-assay. […] The sensitivity towards SC144 was time- and dose-dependent.

The subject of assay [9] is SF-295 CNS cancer cells. In words: Sensitivity of various cancer cells to SC144, SF-295. In kind it is cell-based. The following applies: Homo sapiens.
Description: as §1

In assay [10] the test system is panel of seven human cancer cell lines. In words: MTT-assay, panel of seven human cancer cell lines. Conditions: read-out: CC50 dose range. The format is cell-based. The method, then: as §4
In assay [11] the test system is SKOV3 ovarian cancer cells. The experiment in a line: Sensitivity of various cancer cells to SC144, SKOV3. In kind it is cell-based. Conditions: Homo sapiens, SK-OV-3.
Description: as §1

Assay [12] relates to UO-31 renal cancer cells. The experiment in a line: Sensitivity of various cancer cells to SC144, UO-31. The format is cell-based. The following applies: Homo sapiens.
Description: as §1

Assay [13] relates to MDA-MB-435 xenograft. The experiment in a line: microPET study of nude mouse with MDA-MB-435 xenograft treated with SC144. The format is in vivo. The following applies: 4 mg/kg daily i.p. 5 days; caliper measurements for 5 weeks. The method, then:
Top row, baseline scans: (A) equilibrium-phase FDG, 30 min post injection; (B) FMAU, 10 min post injection; (C) FMAU, 60 min post injection. Bottom row, follow-up scans: (D) FDG, 30 min post injection; (E) FMAU, 10 min post injection; (F) FMAU, 60 min post injection. […] After five days of dosing, the drug treatment was discontinued and the follow-up scans were obtained on days 6 and 7.
[^18F]FDG is currently the most widely used radiotracer for imaging therapy response in oncology with PET. PET/[^18F]FDG measures viable cell density in tumors and also provides information on the expression of glucose transporters and hexokinase activity. […] Following cellular uptake, FMAU is phosphorylated by thymidine kinase and incorporated into DNA.
In later images at 30 and 60 min (FIG. 8C), FMAU had filled up the whole tumor, indicating the presence of dividing cells throughout.
FIGS. 8D-F show a repeat study of the same mouse after 5 days of treatment.

For orientation: CC50 means the concentration at which the toxic effect on the cells reaches its halfway point. Broadly, the IC50 is the point on the concentration scale where inhibition reaches its midpoint. Higher therefore signals weaker potency.

Take `O=C(NNC(=O)c1ccccc1O)C1=CC2C=CC=CC2C=C1O` (centres unmarked) [SC21]: the “early plus late apoptotic cells” value in [1] worked out at 72%.

Turning to `O=C(NNc1nc2cc(F)ccc2n2cccc12)c1cnccn1` [SC144, Pyrazine-2-carboxylic acid N′-(7-fluoro-pyrrolo[1,2-a]quinoxalin-4-yl)-hydrazide], the 50% cytotoxic concentration (CC50) in assay [2] (HOP-62, read-out: CC50) was 10 nM; in assay [2] (non-small cell lung cancer cells HOP-62, EKVX, and HOP-92, read-out: CC50 values range), 10 to 20 nM; in assay [4], 300 nM; in assay [5], 270 nM; in assay [8], 2500 ± 1000 nM; in assay [9], 420 nM. Moreover, the CC50 was 700 to 10000 nM in assay [10], 120 nM in assay [11] and 300 nM in [12]. Besides, the half-inhibitory concentration (IC50) in assay [3] was 900 ± 40 nM; in [6] it was 600 ± 70 nM; in assay [7], 900 ± 60 nM. Besides, the “long-term reduction of tumor volume compared with sham-treated control mice” value in assay [13] is reported as greater than 50%.
